Results reported in paper PMC8348110, “A Novel Peptide Derived from the Transmembrane Domain of Romo1 Is a Promising Candidate for Sepsis Treatment and Multidrug-Resistant Bacteria” (International Journal of Molecular Sciences, 2021).
Converted amounts (≈) assume the structure as drawn. Residues, ends and D or L forms follow the SMILES beside them.

Tests used:
human erythrocytes = assay: Hemolysis assay; assay type: cell-based; details: 2% erythrocytes in PBS, 1 h 37 °C, absorbance 550 nm; up to / at 256 µg/mL
Method: For the hemolytic assay, mouse and human whole blood was diluted with PBS (pH 7.4) and centrifuged for 10 min at 500× g. After removing the supernatant and rinsing the pellet three times with PBS, we resuspended the erythrocytes in PBS at 2% volume. The blood solution was added to the solution of peptides with two-fold serial dilution on a 96-well plate. After incubation for an hour at 37 °C, the plate was centrifuged at 2500× g for 10 min, and the absorbance of the supernatant was measured at 550 nm. The PBS-treated sample was the negative control, and the 0.1% Triton X-100–treated sample was the positive control. To measure white blood cell toxicity, mouse and human PBMCs were freshly isolated as previously described, and 70% ethanol (positive control) or AMPR-22 was administered using two-fold diluted concentrations (0 to 256 μg/mL) for 30 min. To measure cell death, a LIVE/DEAD® fixable green dead cell stain kit (Thermo Fisher Scientific, Waltham, MS, USA) was used following the manufacturer′s instructions, and flow cytometry was performed using a FACS Canto II (BD Biosciences, CA, USA). The toxicity of AMPR-22 was compared with negative (PBS-treated) and positive controls, and the data were analyzed using FlowJo software (Tree Star, OR, USA).

[1] = test system: Carbapenem-resistant P. aeruginosa (CRPA), clinical isolate; assay type: cell-based, Pseudomonas aeruginosa; details: 1 h
From the text: Acinetobacter baumannii (ATCC 19606), B. subtilis (ATCC 6633), E. aerogenes (ATCC 13048), E. coli (ATCC 25922), E. faecalis (ATCC 19433), E. faecium (ATCC 19434), K. pneumoniae (ATCC 13883), P. aeruginosa (ATCC 27853), S. aureus (ATCC 29213), S. sindenensis (ATCC 23963), and MRSA (ATCC 33591) were purchased from the American Type Culture Collection (ATCC; Gaithersburg, MD, USA). Streptococcus pneumoniae (NCCP 14585), vancomycin-resistant E. faecium (NCCP 11522), and vancomycin-resistant S. aureus (NCCP 15872) were purchased from the National Culture Collection for Pathogens (NCCP; Cheongju, Korea). The isolation and use of carbapenem-resistant bacterial strains from a patient were approved (2015AN0129) by the Institutional Review Board (IRB) of Korea University Hospital. CRPA, CRKP, and CRAB were clinically isolated in Korea University Hospital (Seoul, Korea). CRPA was confirmed to be resistant to piperacillin, piperacillin-tazobactam, ceftazidime, imipenem, meropenem, gentamicin, amikacin, and ciprofloxacin. CRAB was confirmed to be resistant to piperacillin, piperacillin-tazobactam, cefepime, ceftazidime, imipenem, meropenem, gentamicin, amikacin, and ciprofloxacin. CRKP was confirmed to be resistant to piperacillin-tazobactam, cefepime, ceftazidime, imipenem, gentamicin, and ciprofloxacin. All strains were stored at –80 °C in 50% glycerol and 50% Luria-Bertani (LB) or tryptic soy (TS) broth, grown on LB or TS plates, and aerated at 37 °C.
(§1) The minimum bactericidal concentration (MBC) was determined as previously described with minor modifications. Briefly, bacteria were cultured in the mid-log phase and diluted to 5 × 10^5 colony-forming unit (CFU)/mL in 10 mM sodium phosphate buffer (pH 7.4) with a 1% volume of TS broth. They were incubated for 1 h with various peptides which were two-fold diluted serially from 64 μg/mL to 0 μg/mL concentrations in a 96-well plate. The samples were inoculated TS agar plate and incubated overnight at 37 °C. The value of MBC was determined at the lowest concentrations at which no colonies were identified.
(§2) We used the CFU counting method to measure antibacterial activity, with all bacteria cultured to the mid-log phase in an appropriate broth medium. Bacterial CFUs were counted after overnight culture at 37 °C on TS or LB agar plates. The MBC value and antibacterial activity in blood components were determined as previously described. Mouse and human whole blood were collected and diluted with PBS (pH 7.4) to measure the ex vivo antibacterial activity of AMPR-22. For that test, AMPR-22 (10 μg) was added to each whole blood solution and incubated at 37 °C with shaking at 200 rpm. At each time point, it was incubated with bacteria (1 × 10^3 CFU) for 30 min. Each sample was inoculated on an LB agar plate, and CFU counting was performed. To measure the in vivo activity of AMPR-22, 1 × 10^8 CFU of bacteria were injected into BALB/c mice, and an hour later, 10 mg/kg of the test peptides were injected. Blood samples were collected by tail cut, serially diluted with PBS (pH 7.4), and inoculated on LB-agar plates, followed by CFU counting. To estimate the functional half-life of AMPR-22, 40 mg/kg of each tested peptide were injected into mice. Whole blood sampling was performed by cardiac puncture, and the plasma was isolated by centrifugation (2000× g, 15 min). The isolated plasma was incubated with bacteria (1 × 10^3 CFU) for an hour, and then the CFU counting method was performed.

[2] = test system: Methicillin-resistant S. aureus (MRSA) ATCC 33591; assay type: cell-based, Staphylococcus aureus; details: ATCC 33591, 1 h
Method: as §1, §2

[3] = test system: Pseudomonas aeruginosa ATCC 27853; assay type: cell-based; details: ATCC 27853, 1 h
Method: as §1, §2

[4] = test system: Staphylococcus aureus ATCC 29213; assay type: cell-based; details: ATCC 29213, 1 h, pH 7.4
Method: as §1, §2

CC[C@H](C)[C@H](NC(=O)CNC(=O)[C@H](CCSC)NC(=O)CNC(=O)[C@@H](NC(=O)[C@H](C)NC(=O)[C@H](CCSC)NC(=O)[C@H](Cc1ccccc1)NC(=O)[C@@H](NC(=O)CNC(=O)[C@H](Cc1ccccc1)NC(=O)[C@@H](NC(=O)CNC(=O)CNC(=O)[C@H](CO)NC(=O)[C@H](CCC(N)=O)NC(=O)[C@H](CCSC)NC(=O)[C@H](CCSC)NC(=O)[C@@H](NC(=O)[C@@H](N)CCCCN)[C@@H](C)O)[C@@H](C)O)[C@@H](C)O)[C@@H](C)CC)C(=O)N[C@@H](CCCNC(=N)N)C(=O)O [AMPR-11] (H-KTMMQSGGTFGTFMAIGMGIR-OH)
Hemolytic activity against human erythrocytes (human erythrocytes): low hemolytic activity

CC[C@H](C)[C@H](NC(=O)CNC(=O)[C@H](CCSC)NC(=O)CNC(=O)[C@@H](NC(=O)[C@H](C)NC(=O)[C@H](CCSC)NC(=O)[C@H](Cc1ccccc1)NC(=O)[C@@H](NC(=O)CNC(=O)[C@H](CCCCN)NC(=O)CNC(=O)CNC(=O)[C@H](CCCCN)NC(=O)[C@H](CCCCN)NC(=O)[C@H](CCSC)NC(=O)[C@H](CCSC)NC(=O)[C@H](CCCCN)NC(=O)[C@@H](N)CCCCN)[C@@H](C)O)[C@@H](C)CC)C(=O)N[C@@H](CCCNC(=N)N)C(=O)O [d67F] (H-KKMMKKGGKGTFMAIGMGIR-OH)
MBC Value, CRPA [1]: 8 µg/mL (≈ 3.69 µM) | MBC Value, MRSA [2]: 4 µg/mL (≈ 1.84 µM) | MBC Value, P. aeruginosa [3]: 4 µg/mL (≈ 1.84 µM) | MBC Value, S. aureus [4]: 8 µg/mL (≈ 3.69 µM)

CC[C@H](C)[C@H](NC(=O)[C@H](C)NC(=O)[C@H](CCSC)NC(=O)[C@H](Cc1ccccc1)NC(=O)[C@@H](NC(=O)CNC(=O)[C@H](Cc1ccccc1)NC(=O)[C@H](CCCCN)NC(=O)CNC(=O)CNC(=O)[C@H](CCCCN)NC(=O)[C@H](CCCCN)NC(=O)[C@H](CCSC)NC(=O)[C@H](CCSC)NC(=O)[C@H](CCCCN)NC(=O)[C@@H](N)CCCCN)[C@@H](C)O)C(=O)NCC(=O)N[C@@H](CCSC)C(=O)N[C@H](C(=O)N[C@@H](CCCNC(=N)N)C(=O)O)[C@@H](C)CC [d76G] (H-KKMMKKGGKFGTFMAIGMIR-OH)
MBC Value, CRPA [1]: 4 µg/mL (≈ 1.77 µM) | MBC Value, MRSA [2]: 4 µg/mL (≈ 1.77 µM) | MBC Value, P. aeruginosa [3]: 4 µg/mL (≈ 1.77 µM) | MBC Value, S. aureus [4]: 4 µg/mL (≈ 1.77 µM)

CC[C@H](C)[C@H](NC(=O)CNC(=O)[C@H](CCSC)NC(=O)CNC(=O)[C@@H](NC(=O)[C@H](C)NC(=O)[C@H](CCSC)NC(=O)[C@H](Cc1ccccc1)NC(=O)[C@@H](NC(=O)CNC(=O)[C@H](Cc1ccccc1)NC(=O)[C@H](CCCCN)NC(=O)CNC(=O)CNC(=O)[C@H](CCCCN)NC(=O)[C@H](CCCCN)NC(=O)[C@H](CCSC)NC(=O)[C@H](CCSC)NC(=O)[C@@H](N)CCCCN)[C@@H](C)O)[C@@H](C)CC)C(=O)N[C@@H](CCCNC(=N)N)C(=O)O [d58K] (H-KMMKKGGKFGTFMAIGMGIR-OH)
MBC Value, CRPA [1]: 8 µg/mL (≈ 3.65 µM) | MBC Value, MRSA [2]: 2 µg/mL (≈ 0.913 µM) | MBC Value, P. aeruginosa [3]: 2 µg/mL (≈ 0.913 µM) | MBC Value, S. aureus [4]: 8 µg/mL (≈ 3.65 µM)

CC[C@H](C)[C@H](NC(=O)CNC(=O)[C@H](CCSC)NC(=O)CNC(=O)[C@@H](NC(=O)[C@H](C)NC(=O)[C@H](CCSC)NC(=O)[C@H](Cc1ccccc1)NC(=O)[C@@H](NC(=O)CNC(=O)[C@H](Cc1ccccc1)NC(=O)[C@H](CCCCN)NC(=O)CNC(=O)CNC(=O)[C@H](CCCCN)NC(=O)[C@H](CCCCN)NC(=O)[C@H](CCSC)NC(=O)[C@H](CCSC)NC(=O)[C@H](CCCCN)NC(=O)[C@@H](N)CCCCN)[C@@H](C)O)[C@@H](C)CC)C(=O)O [d78R] (H-KKMMKKGGKFGTFMAIGMGI-OH)
MBC Value, CRPA [1]: 16 µg/mL (≈ 7.4 µM) | MBC Value, MRSA [2]: 4 µg/mL (≈ 1.85 µM) | MBC Value, P. aeruginosa [3]: 4 µg/mL (≈ 1.85 µM) | MBC Value, S. aureus [4]: 16 µg/mL (≈ 7.4 µM)

CC[C@H](C)[C@H](NC(=O)CNC(=O)[C@H](CCSC)NC(=O)CNC(=O)[C@@H](NC(=O)[C@H](C)NC(=O)[C@H](CCSC)NC(=O)[C@H](Cc1ccccc1)NC(=O)[C@@H](NC(=O)CNC(=O)[C@H](Cc1ccccc1)NC(=O)[C@H](CCCCN)NC(=O)CNC(=O)CNC(=O)[C@H](CCCCN)NC(=O)[C@H](CCSC)NC(=O)[C@H](CCSC)NC(=O)[C@H](CCCCN)NC(=O)[C@@H](N)CCCCN)[C@@H](C)O)[C@@H](C)CC)C(=O)N[C@@H](CCCNC(=N)N)C(=O)O [d62K] (H-KKMMKGGKFGTFMAIGMGIR-OH)
MBC Value, CRPA [1]: 8 µg/mL (≈ 3.65 µM) | MBC Value, MRSA [2]: 8 µg/mL (≈ 3.65 µM) | MBC Value, P. aeruginosa [3]: 2 µg/mL (≈ 0.913 µM) | MBC Value, S. aureus [4]: 8 µg/mL (≈ 3.65 µM)

CC[C@H](C)[C@H](NC(=O)CNC(=O)[C@H](CCSC)NC(=O)CNC(=O)[C@@H](NC(=O)[C@H](C)NC(=O)[C@H](CCSC)NC(=O)[C@H](Cc1ccccc1)NC(=O)[C@@H](NC(=O)CNC(=O)[C@H](Cc1ccccc1)NC(=O)[C@H](CCCCN)NC(=O)CNC(=O)CNC(=O)[C@H](CCCCN)NC(=O)[C@H](CCCCN)NC(=O)[C@H](CCSC)NC(=O)[C@H](CCCCN)NC(=O)[C@@H](N)CCCCN)[C@@H](C)O)[C@@H](C)CC)C(=O)N[C@@H](CCCNC(=N)N)C(=O)O [d60M] (H-KKMKKGGKFGTFMAIGMGIR-OH)
MBC Value, CRPA [1]: 4 µg/mL (≈ 1.83 µM) | MBC Value, MRSA [2]: 1 µg/mL (≈ 0.457 µM) | MBC Value, P. aeruginosa [3]: 2 µg/mL (≈ 0.915 µM) | MBC Value, S. aureus [4]: 4 µg/mL (≈ 1.83 µM)

CC[C@H](C)[C@H](NC(=O)CNC(=O)[C@H](CCSC)NC(=O)CNC(=O)[C@@H](NC(=O)[C@H](C)NC(=O)[C@H](CCSC)NC(=O)[C@H](Cc1ccccc1)NC(=O)[C@@H](NC(=O)CNC(=O)[C@H](Cc1ccccc1)NC(=O)[C@@H](NC(=O)CNC(=O)CNC(=O)[C@H](CCCCN)NC(=O)[C@H](CCCCN)NC(=O)[C@H](CCSC)NC(=O)[C@H](CCSC)NC(=O)[C@H](CCCCN)NC(=O)[C@@H](N)CCCCN)[C@@H](C)O)[C@@H](C)O)[C@@H](C)CC)C(=O)N[C@@H](CCCNC(=N)N)C(=O)O [K3] (H-KKMMKKGGTFGTFMAIGMGIR-OH)
MBC Value, CRPA [1]: 8 µg/mL (≈ 3.49 µM) | MBC Value, MRSA [2]: 32 µg/mL (≈ 14 µM) | MBC Value, P. aeruginosa [3]: 8 µg/mL (≈ 3.49 µM) | MBC Value, S. aureus [4]: 16 µg/mL (≈ 6.98 µM)

CC[C@H](C)[C@H](NC(=O)CNC(=O)[C@H](CCSC)NC(=O)CNC(=O)[C@@H](NC(=O)[C@H](CCSC)NC(=O)[C@H](Cc1ccccc1)NC(=O)[C@@H](NC(=O)CNC(=O)[C@H](Cc1ccccc1)NC(=O)[C@H](CCCCN)NC(=O)CNC(=O)CNC(=O)[C@H](CCCCN)NC(=O)[C@H](CCCCN)NC(=O)[C@H](CCSC)NC(=O)[C@H](CCSC)NC(=O)[C@H](CCCCN)NC(=O)[C@@H](N)CCCCN)[C@@H](C)O)[C@@H](C)CC)C(=O)N[C@@H](CCCNC(=N)N)C(=O)O [d72A] (H-KKMMKKGGKFGTFMIGMGIR-OH)
MBC Value, CRPA [1]: 4 µg/mL (≈ 1.78 µM) | MBC Value, MRSA [2]: 2 µg/mL (≈ 0.89 µM) | MBC Value, P. aeruginosa [3]: 2 µg/mL (≈ 0.89 µM) | MBC Value, S. aureus [4]: 2 µg/mL (≈ 0.89 µM)
